Data taken from article doi:10.64898/2025.12.10.692519v1 (biorxiv, 2025).

Assays:
MCF-7 = experiment: cells; conditions: Homo sapiens, MCF7, 144 h, read-out: AB8939
SW-872 = experiment: cells; conditions: Homo sapiens, SW872, 144 h, read-out: AB8939
MESSA = experiment: cells; parameters: species or system MES-SA/Mx2; conditions: Homo sapiens, MES-SA, read-out: MES-SA
ALDH2 = ALDH2 (Homo sapiens, UniProt P05091); experiment: NADH fluorescence dehydrogenase assay; type: biochemical
CMK = experiment: cells; parameters: species or system CHRF; conditions: Homo sapiens, 72 h, read-out: AB8939 (IC50 nM)
TG-LAM-139-P0 = experiment: cells; parameters: species or system primary AML patient blasts; conditions: 48 h, read-out: IC50 (µM) / AB8939
TG-LAM-138-P0 = experiment: cells; parameters: species or system primary AML patient blasts; conditions: 48 h, read-out: IC50 (µM) / AB8939
TG-LAM-77-P0 = experiment: cells; parameters: species or system primary AML patient blasts; conditions: 48 h, read-out: IC50 (µM) / AB8939
TG-LAM-134-P0 = experiment: cells; parameters: species or system primary AML patient blasts; conditions: 48 h, read-out: IC50 (µM) / AB8939
TG-LAM-144-P0 = experiment: cells; parameters: species or system primary AML patient blasts; conditions: 48 h, read-out: IC50 (µM) / AB8939
TG-LAM-135-P0 = experiment: cells; parameters: species or system primary AML patient blasts; conditions: 48 h, read-out: IC50 (µM) / AB8939
TG-LAM-76-P3 = experiment: cells; parameters: species or system primary AML patient blasts; conditions: 48 h, read-out: IC50 (µM) / AB8939
TG-LAM-141-P0 = experiment: cells; parameters: species or system primary AML patient blasts; conditions: 48 h, read-out: IC50 (µM) / AB8939
TG-LAM-143-P0 = experiment: cells; parameters: species or system primary AML patient blasts; conditions: 48 h, read-out: IC50 (µM) / AB8939
TG-LAM-75-P3 = experiment: cells; parameters: species or system primary AML patient blasts; conditions: 48 h, read-out: IC50 (µM) / AB8939
TG-LAM-140-P0 = experiment: cells; parameters: species or system primary AML patient blasts; conditions: 48 h, read-out: IC50 (µM) / AB8939
TG-LAM-145-P0 = experiment: cells; parameters: species or system primary AML patient blasts; conditions: 48 h, read-out: IC50 (µM) / AB8939
TG-LAM-136-P0 = experiment: cells; parameters: species or system primary AML patient blasts; conditions: 48 h, read-out: IC50 (µM) / AB8939
TG-LAM-142-P0 = experiment: cells; parameters: species or system primary AML patient blasts; conditions: 48 h, read-out: IC50 (µM) / AB8939

Sequence of ALDH2 (P05091 17-517): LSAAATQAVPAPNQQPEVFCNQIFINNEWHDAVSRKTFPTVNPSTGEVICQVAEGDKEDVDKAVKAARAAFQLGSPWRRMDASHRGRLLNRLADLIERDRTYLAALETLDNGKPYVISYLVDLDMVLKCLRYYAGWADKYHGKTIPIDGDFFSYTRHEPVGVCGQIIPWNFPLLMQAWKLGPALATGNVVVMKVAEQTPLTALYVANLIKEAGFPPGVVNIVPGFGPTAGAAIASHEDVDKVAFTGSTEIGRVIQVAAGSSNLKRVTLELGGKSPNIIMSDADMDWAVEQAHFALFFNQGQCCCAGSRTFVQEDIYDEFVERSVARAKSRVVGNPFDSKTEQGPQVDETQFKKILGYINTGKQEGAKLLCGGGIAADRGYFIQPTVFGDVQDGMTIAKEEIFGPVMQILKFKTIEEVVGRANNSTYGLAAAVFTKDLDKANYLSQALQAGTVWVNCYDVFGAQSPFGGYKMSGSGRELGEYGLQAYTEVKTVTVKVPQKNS

`CCOCc1ccc(C)c(Nc2ncc(-c3ccc(N4CCNC4=O)cc3)o2)c1` [AB8939] was tested, and the IC50 (MCF-7) was 122 nM, the IC50 (SW-872) was 1 nM and the IC50 (MESSA) was 5.7 ± 5 nM. The IC50 (ALDH2) was 340 nM, the IC50 (CMK) was 5.68 nM and the IC50 (TG-LAM-139-P0) was 0.94 µM. It also gave an IC50 (TG-LAM-138-P0) of over 5 µM, an IC50 (TG-LAM-77-P0) of over 5 µM and an IC50 (TG-LAM-134-P0) of 0.08 µM. For the same molecule, the IC50 (TG-LAM-144-P0) was 0.38 µM, the IC50 (TG-LAM-135-P0) was over 5 µM and the IC50 (TG-LAM-76-P3) was 0.013 µM. It also gave an IC50 (TG-LAM-141-P0) of 0.12 µM, an IC50 (TG-LAM-143-P0) of 0.36 µM and an IC50 (TG-LAM-75-P3) of 0.05 µM. It also gave an IC50 (TG-LAM-140-P0) of 0.06 µM, an IC50 (TG-LAM-145-P0) of 1.8 µM and an IC50 (TG-LAM-136-P0) of 0.04 µM. The IC50 (TG-LAM-142-P0) was over 5 µM.
